Source: ChEMBL document CHEMBL5291721, “A preclinical secondary pharmacology resource illuminates target-adverse drug reaction associations of marketed drugs” (Nat Commun, 2023)

Legend:
Adenosine receptor A2a = Adenosine receptor A2a (Homo sapiens, UniProt P29274)
Adenosine receptor A3 = target: T1, Adenosine receptor A3 (Homo sapiens, UniProt P0DMS8)
T1 sequence (P0DMS8 whole entry): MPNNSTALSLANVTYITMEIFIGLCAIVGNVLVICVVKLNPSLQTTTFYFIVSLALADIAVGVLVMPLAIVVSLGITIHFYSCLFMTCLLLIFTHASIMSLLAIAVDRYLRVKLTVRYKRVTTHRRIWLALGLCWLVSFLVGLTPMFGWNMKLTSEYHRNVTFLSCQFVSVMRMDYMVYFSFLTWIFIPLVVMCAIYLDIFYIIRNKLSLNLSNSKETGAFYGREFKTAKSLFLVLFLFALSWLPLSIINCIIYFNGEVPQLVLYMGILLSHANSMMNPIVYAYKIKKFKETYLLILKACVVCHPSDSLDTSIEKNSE

[1] = target: T2, Alpha-2A adrenergic receptor (Homo sapiens, UniProt P08913); assay type: functional, cell-based
T2 sequence (P08913 whole entry): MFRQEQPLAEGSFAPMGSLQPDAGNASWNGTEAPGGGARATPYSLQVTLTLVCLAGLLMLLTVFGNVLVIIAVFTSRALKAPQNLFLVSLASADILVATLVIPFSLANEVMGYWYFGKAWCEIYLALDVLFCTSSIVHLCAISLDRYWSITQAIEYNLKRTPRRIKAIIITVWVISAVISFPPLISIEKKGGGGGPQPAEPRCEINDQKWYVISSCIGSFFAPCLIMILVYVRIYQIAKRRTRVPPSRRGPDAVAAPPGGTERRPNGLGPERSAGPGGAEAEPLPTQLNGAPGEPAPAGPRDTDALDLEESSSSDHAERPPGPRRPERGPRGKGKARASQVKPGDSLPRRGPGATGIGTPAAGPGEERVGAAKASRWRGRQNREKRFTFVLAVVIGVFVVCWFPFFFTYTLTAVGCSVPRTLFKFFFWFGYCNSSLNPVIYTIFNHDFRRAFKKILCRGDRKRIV

[2] = target: T3, Type-1 angiotensin II receptor (Homo sapiens, UniProt P30556)
T3 sequence (P30556 whole entry): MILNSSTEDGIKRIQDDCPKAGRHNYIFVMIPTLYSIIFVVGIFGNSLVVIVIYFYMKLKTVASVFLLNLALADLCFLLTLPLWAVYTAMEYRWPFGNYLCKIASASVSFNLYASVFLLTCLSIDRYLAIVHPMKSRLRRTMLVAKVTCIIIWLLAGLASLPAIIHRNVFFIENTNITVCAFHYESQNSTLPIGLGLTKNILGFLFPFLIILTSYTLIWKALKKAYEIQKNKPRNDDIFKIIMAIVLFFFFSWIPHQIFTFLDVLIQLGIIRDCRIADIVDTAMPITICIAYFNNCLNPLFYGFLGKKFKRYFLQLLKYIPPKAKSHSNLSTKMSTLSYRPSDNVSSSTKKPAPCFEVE

D(1A) dopamine receptor = D(1A) dopamine receptor (Homo sapiens, UniProt P21728); assay type: functional, cell-based
[3] = target: Gamma-aminobutyric acid receptor subunit alpha-1 (Rattus norvegicus, UniProt P62813); assay type: functional
[4] = target: T4, 5-hydroxytryptamine receptor 1A (Homo sapiens, UniProt P08908); assay type: functional, cell-based
T4 sequence (P08908 whole entry): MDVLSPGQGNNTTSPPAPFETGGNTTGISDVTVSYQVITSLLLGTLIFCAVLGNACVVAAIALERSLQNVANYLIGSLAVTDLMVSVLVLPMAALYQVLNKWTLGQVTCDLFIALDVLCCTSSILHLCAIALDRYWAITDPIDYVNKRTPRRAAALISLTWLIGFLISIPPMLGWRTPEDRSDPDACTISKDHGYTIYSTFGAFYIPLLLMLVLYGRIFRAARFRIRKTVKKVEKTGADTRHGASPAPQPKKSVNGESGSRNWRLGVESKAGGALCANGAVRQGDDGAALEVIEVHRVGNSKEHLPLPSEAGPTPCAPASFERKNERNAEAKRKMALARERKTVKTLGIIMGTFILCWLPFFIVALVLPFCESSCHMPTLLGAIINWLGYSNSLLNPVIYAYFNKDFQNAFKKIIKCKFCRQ

Melanocortin receptor 3 = Melanocortin receptor 3 (Homo sapiens, UniProt P41968)
Motilin receptor = Motilin receptor (Homo sapiens, UniProt O43193)
[5] = target: T5, Equilibrative nucleoside transporter 1 (Homo sapiens, UniProt Q99808)
T5 sequence (Q99808 whole entry): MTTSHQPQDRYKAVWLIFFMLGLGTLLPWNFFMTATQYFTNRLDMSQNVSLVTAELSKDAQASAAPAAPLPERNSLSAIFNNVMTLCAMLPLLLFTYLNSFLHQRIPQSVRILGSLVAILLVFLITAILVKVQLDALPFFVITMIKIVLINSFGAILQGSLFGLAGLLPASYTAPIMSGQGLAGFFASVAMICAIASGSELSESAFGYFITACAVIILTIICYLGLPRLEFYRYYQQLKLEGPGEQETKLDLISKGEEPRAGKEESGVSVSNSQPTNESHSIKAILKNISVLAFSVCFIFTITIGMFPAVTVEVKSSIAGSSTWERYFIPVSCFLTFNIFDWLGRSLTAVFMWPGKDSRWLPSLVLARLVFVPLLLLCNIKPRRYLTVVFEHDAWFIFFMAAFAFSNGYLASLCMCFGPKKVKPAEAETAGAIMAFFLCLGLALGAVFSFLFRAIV

[6] = target: T6, Amine oxidase [flavin-containing] A (Homo sapiens, UniProt P21397); assay type: functional
T6 sequence (P21397 whole entry): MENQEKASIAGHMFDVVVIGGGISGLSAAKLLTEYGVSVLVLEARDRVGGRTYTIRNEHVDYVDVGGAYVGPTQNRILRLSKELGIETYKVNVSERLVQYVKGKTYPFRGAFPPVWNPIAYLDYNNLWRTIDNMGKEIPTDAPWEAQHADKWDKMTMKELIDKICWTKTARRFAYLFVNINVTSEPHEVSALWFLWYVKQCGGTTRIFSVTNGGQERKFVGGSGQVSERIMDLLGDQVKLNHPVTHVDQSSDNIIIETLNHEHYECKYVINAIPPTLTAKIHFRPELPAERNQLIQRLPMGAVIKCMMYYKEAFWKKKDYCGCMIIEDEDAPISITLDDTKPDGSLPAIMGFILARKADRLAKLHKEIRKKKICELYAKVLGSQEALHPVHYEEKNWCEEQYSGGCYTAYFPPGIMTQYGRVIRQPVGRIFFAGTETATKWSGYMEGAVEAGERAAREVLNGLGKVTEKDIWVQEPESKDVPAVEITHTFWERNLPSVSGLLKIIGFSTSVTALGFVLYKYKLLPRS
Further: assay procedure not described here.

Adenosine receptor A2a, sequence (P29274 whole entry): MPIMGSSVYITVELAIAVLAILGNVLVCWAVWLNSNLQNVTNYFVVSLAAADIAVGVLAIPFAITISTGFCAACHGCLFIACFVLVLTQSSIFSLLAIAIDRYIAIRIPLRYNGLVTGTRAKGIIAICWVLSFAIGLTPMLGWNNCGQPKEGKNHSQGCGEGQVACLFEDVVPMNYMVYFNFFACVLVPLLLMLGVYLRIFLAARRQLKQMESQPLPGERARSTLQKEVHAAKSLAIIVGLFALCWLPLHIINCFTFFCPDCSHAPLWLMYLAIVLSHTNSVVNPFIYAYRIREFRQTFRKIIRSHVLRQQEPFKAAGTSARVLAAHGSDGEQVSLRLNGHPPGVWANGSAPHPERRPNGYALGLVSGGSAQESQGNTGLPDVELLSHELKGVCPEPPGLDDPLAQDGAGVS
Melanocortin receptor 3, sequence (P41968 whole entry): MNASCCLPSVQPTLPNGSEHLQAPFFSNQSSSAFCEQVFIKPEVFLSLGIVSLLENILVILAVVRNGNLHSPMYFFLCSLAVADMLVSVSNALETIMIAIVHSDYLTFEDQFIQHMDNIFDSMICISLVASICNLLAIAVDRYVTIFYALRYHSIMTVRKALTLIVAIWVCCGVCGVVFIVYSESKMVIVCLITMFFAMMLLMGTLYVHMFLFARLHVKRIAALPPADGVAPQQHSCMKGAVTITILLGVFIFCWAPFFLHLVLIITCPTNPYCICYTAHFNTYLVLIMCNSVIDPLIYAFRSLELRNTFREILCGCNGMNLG
Gamma-aminobutyric acid receptor subunit alpha-1, sequence (P62813 whole entry): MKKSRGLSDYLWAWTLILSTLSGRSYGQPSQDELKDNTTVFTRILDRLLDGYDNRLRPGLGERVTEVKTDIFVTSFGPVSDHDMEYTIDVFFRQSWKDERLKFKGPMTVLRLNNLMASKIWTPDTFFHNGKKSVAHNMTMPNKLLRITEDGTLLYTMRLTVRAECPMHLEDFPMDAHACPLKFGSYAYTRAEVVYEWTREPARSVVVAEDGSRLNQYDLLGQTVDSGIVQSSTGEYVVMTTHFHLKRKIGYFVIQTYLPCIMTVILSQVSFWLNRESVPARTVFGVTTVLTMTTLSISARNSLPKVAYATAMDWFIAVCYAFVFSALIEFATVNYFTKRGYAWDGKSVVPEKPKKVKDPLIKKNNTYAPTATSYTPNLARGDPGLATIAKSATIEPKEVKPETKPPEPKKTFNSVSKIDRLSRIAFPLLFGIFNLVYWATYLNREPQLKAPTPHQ
Motilin receptor, sequence (O43193 whole entry): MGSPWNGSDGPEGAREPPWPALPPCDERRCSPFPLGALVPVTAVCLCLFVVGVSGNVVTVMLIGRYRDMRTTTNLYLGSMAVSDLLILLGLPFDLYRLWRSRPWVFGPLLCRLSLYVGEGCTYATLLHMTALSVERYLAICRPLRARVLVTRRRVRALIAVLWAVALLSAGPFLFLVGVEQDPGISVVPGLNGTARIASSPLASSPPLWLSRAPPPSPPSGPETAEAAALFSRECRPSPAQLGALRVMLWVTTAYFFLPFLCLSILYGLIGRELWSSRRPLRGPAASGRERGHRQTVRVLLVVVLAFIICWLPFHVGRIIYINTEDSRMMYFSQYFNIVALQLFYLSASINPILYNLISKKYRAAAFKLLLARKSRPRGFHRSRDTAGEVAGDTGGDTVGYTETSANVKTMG
D(1A) dopamine receptor, sequence (P21728 whole entry): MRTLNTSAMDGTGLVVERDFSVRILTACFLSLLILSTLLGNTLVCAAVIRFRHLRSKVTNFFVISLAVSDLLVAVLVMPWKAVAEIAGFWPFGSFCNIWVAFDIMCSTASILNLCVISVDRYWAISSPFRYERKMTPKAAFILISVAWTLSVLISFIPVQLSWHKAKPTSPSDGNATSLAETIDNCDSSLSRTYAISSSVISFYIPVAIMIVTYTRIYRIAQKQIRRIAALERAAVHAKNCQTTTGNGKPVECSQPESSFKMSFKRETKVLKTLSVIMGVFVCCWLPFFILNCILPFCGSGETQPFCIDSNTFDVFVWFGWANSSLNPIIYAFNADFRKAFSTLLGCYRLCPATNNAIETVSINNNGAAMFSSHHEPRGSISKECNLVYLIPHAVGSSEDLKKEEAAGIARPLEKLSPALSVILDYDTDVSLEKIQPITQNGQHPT

SMILES | AC50 (Adenosine receptor A2a) | AC50 (Adenosine receptor A3) | AC50 [1] | AC50 [2] | AC50 (D(1A) dopamine receptor) | AC50 [3] | AC50 [4] | AC50 (Melanocortin receptor 3) | AC50 (Motilin receptor) | AC50 [5] | AC50 [6]
Cc1c(C)c2c(c(C)c1O)CCC(C)(COc1ccc(CC3SC(=O)NC3=O)cc1)O2 (configuration not stated) [TROGLITAZONE] | > 30 µM | 8.48 µM | > 30 µM | 15.5 µM | > 30 µM | > 30 µM | > 30 µM | > 30 µM | > 30 µM | > 30 µM | > 30 µM
C=CC1=C(C(=O)O)N2C(=O)[C@@H](NC(=O)/C(=N\O)c3csc(N)n3)[C@H]2SC1 | > 30 µM | > 30 µM | > 10 µM | > 30 µM | > 10 µM | > 10 µM | > 10 µM | > 30 µM | > 10 µM | > 30 µM | > 10 µM
Cn1cnc2c(F)c(Nc3ccc(Br)cc3F)c(C(=O)NOCCO)cc21 [BINIMETINIB] | > 30 µM | > 30 µM | > 30 µM | > 30 µM | > 30 µM | > 30 µM | > 30 µM | > 30 µM | > 30 µM | > 30 µM | > 30 µM
CCC1(c2ccccc2)C(=O)NCNC1=O [PRIMIDONE] | > 10 µM | > 10 µM | > 10 µM | > 30 µM | > 10 µM | > 10 µM | > 10 µM | > 10 µM | > 10 µM | > 10 µM | > 10 µM
Nc1nnc(-c2cccc(Cl)c2Cl)c(N)n1 [LAMOTRIGINE] | > 30 µM | > 30 µM | > 10 µM | > 30 µM | > 30 µM | > 10 µM | > 10 µM | > 30 µM | > 10 µM | > 30 µM | 16 µM
CCC[C@@]1(CCc2ccccc2)CC(O)=C([C@H](CC)c2cccc(NS(=O)(=O)c3ccc(C(F)(F)F)cn3)c2)C(=O)O1 | > 30 µM | 6.4 µM | > 30 µM | 11 µM | > 30 µM | > 30 µM | > 30 µM | > 30 µM | 27 µM | > 30 µM | > 30 µM
CCOCC(O)COc1ccc(NC(=O)CC[S+](C)C)cc1 (configuration not stated) | > 30 µM | > 30 µM | > 30 µM | > 30 µM | > 30 µM | > 30 µM | > 30 µM | > 30 µM | > 30 µM | > 30 µM | > 30 µM
